The nature of data set [1]: Rat pharmacokinetic evaluation assay (oral). In kind it is in vivo. Particulars: male, SD rats, p.o. 5 mg/kg, plasma; for MRT inf: read-out: MRT 0-∞. How it is done: 6. Experimental conclusion: It can be seen from the data in the table that the example compounds shown in the present invention show good antagonistic effects in the experiment of the effect on calcium current in cells stably expressing ETA receptors. 2. Rat pharmacokinetic evaluation assay 1. Study objective: SD rats were used as test animals to study the pharmacokinetic behaviour of the compounds of the present invention in rat (plasma) after oral administration at a dose of 5 mg/kg. 2. Experimental scheme: • 2.1 Experimental drugs: The example compounds of the present invention, made in house. • 2.2 Experimental animals: 3 SD rats/group, male, from Shanghai Jiesijie Experimental Animal Co., Ltd., animal production license number (SCXK (Shanghai) 2013-0006 N0.311620400001794). 2.3 Preparation formulation: 0.5% CMC-Na (1% Tween80) was dissolved by ultrasonication, and formulated into a clear solution or homogeneous suspension. 2.4 Administration: • p.o. respectively after the rats were fasted overnight; • the p.o. dose was 5 mg/kg and the administration volume was 10 mL/kg. 2.5 Sample collection: After oral administration of rats, 0.2 mL of blood was collected from the jugular vein at 0.25 h, 0.5 h, 1.0 h, 2.0 h, and 4.0 h, placed in an EDTA-2K test tube, and centrifuged at 6000 rpm for 6 min at 4°C to separate plasma which was stored at - 80°C; the animals were fed 4 h after administration. 2.6 Sample treatment: • 1) Acetonitrile (160 µL) was added to plasma sample (40 µL) for precipitation, and the mixture was centrifuged at 3500 × g for 5-20 min. • 2) The treated supernatant solution was taken and subjected to LC/MS/MS to analyse the concentrations of the test compound. LC/MS/MS analysis instrument: AB Sciex API 4000 Qtrap. 2.7 Liquid phase analysis: • Liquid phase conditions: Shimadzu LC-20AD pump • Chromatographic column: Agilent ZORBAX XDB-C18 (50×2.1 mm, 3.5 µm), mobile phase: liquid A: 0.1% formic acid in water, liquid B: acetonitrile • Flow rate: 0.4 mL/min • Elution time: 0-4.0 min, the eluent was as follows:
The main pharmacokinetic parameters were calculated using WinNonlin 6.1. The results of pharmacokinetic experiments in rats are as shown in Table 13 below: Table 13: Pharmacokinetic parameters of the compounds of the present invention in rats after oral administration

Data set [2] deals with T1, CYP450 3A4-T (Homo sapiens, UniProt P08684).
T1 construct: Human liver microsome incubation system was used; from tissue; host or cells: human liver microsomes
T1 sequence (P08684 whole entry): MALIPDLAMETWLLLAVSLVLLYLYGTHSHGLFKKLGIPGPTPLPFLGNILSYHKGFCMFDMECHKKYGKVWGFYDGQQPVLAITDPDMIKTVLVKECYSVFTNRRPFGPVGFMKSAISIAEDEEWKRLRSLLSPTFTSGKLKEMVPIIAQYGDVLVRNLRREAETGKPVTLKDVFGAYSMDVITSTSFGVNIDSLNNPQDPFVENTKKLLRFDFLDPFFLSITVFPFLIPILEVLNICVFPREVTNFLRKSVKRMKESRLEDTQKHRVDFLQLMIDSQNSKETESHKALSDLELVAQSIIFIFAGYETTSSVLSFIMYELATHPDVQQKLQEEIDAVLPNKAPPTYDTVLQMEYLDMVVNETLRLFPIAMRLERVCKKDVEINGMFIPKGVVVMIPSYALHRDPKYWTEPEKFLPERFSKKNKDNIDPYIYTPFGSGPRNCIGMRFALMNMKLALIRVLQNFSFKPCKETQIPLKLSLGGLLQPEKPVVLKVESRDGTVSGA
The experiment in a line: CYP enzyme single-point inhibition assay, 3A4-T. In kind it is in vitro ADME. As to conditions: human liver microsomes, single-point method. How it is done:
(§1) Human liver microsome incubation system was used, and the single-point method was used to quickly predict the inhibition on CYP450 enzyme subtypes (1A2, 2C19, 2D6, 3A4-M, and 3A4-T) by compounds.
(§2) For 2.5 mM NADPH, 4.165 mg of NADPH (reduced nicotinamide adenine dinucleotide phosphate) was weighed and 100 mM phosphate buffer was added to a final volume of 2 mL. For 0.25 mg/mL microsomes, 50 µL of 20 mg/mL microsomes was mixed with […] of 100 mM phosphate buffer evenly.
(§3) The test example compounds were weighed, diluted to 10 mM with DMSO, and then diluted to 100 µM with 100 mM phosphate buffer.
(§4) • 1. Liver microsomes (40 µL), substrate (10 µL), and test compound (10 µL) were added to a 96-well plate, and the mixture was pre-incubated for 3 min. • 2. NADPH (40 µL) was added. • 3. At 20 min, acetonitrile stop solution containing internal standard (300 µL) was added. • 4. The mixture was centrifuged and the sample was loaded.
(Liver microsomes are vesicles of endoplasmic reticulum, rich in cytochrome P450 enzymes.)

Data set [3] can be described thus: Liver microsomal metabolism stability assay (dog). As to conditions: compound 1 µM; for half-life at 1 µM: dog liver microsomes 0.5 mg/mL, NADPH/UDPGA, read-out: Dog t1/2; for Dog Remaining rate: dog liver microsomes, 60 min. The data set is classed as in vitro ADME. How it is done: (§5) The objective of this experiment was to detect the stability of the example compounds in liver microsomes of rats, dogs and humans.
(§6) Formulation of compound working solution: compound stock solution was added to phosphate buffer to a final concentration of 20 µM.
(§7) Dilution was performed with 100 mM phosphate buffer to a final concentration of 0.625 mg/mL.
(§8) NADPH (reduced nicotinamide adenine dinucleotide phosphate) and UDPGA (uridine diphosphate glucuronic acid) were weighed, and 100 mM phosphate buffer was added to a final concentration of 20 mM.
(§9) 1 mg of Alamethicin was weighed, and 200 µL of DMSO was added to formulate a 5 mg/mL solution. Then dilution was performed with phosphate buffer to a final concentration of 50 µg/mL.
(§10) Stop solution: cold acetonitrile containing 100 ng/mL labetalol hydrochloride and 400 ng/mL tolbutamide as internal standards.
(§11) 400 µL of formulated liver microsomes, 25 µL of compound working solution and 25 µL of Alamethicin were added in sequence to a 96-well plate, and the mixture was pre-incubated at 37°C for 10 min. Then 50 µL of formulated NADPH/UDPGA was added to start the reaction and the mixture was incubated at 37°C. The total volume of the reaction system was 500 µL. The final contents of each component are as follows:
(§12) • Instrument: Shimadzu LC-30 AD; • Chromatographic column: XBridge® C18 (50*4.6 mm, 5 µm particle size); • Mobile phase: A: 0.1% formic acid solution, B: methanol • Elution gradient: 0.2-1.6 min 5% A to 95% A, 3.0-3.1 min 95% A to 5% A • Run time: 4.0 min.
(§13) • Instrument: API5500 liquid chromatography-mass spectrometer, AB Sciex; • Ion source: electrospray ionization source (ESI); • Drying gas: N2, temperature 500°C; • Electrospray voltage: 5000 V; • Detection mode: positive ion detection; • Scan mode: Multiple Reaction Monitoring (MRM) mode.

Data set [4] addresses T2, CYP450 2C19 (Homo sapiens, UniProt P33261).
T2 construct: Human liver microsome incubation system was used; from tissue; host or cells: human liver microsomes
The experiment in a line: CYP enzyme single-point inhibition assay, 2C19. In kind it is in vitro ADME. As to conditions: human liver microsomes, single-point method. How it is done:
as §1, §2, §3, §4

Data set [5] can be described thus: Liver microsomal metabolism stability assay (human). As to conditions: compound 1 µM; for half-life at 1 µM: human liver microsomes 0.5 mg/mL, NADPH/UDPGA, read-out: Human t1/2; for Human Remaining rate: human liver microsomes, 60 min. In kind it is in vitro ADME. How it is done: as §5, §6, §7, §8, §9, §10, §11, §12, §13
The target in data set [6] is T3, CYP450 2D6 (Homo sapiens, UniProt P10635).
T3 construct: Human liver microsome incubation system was used; from tissue; host or cells: human liver microsomes
T3 sequence (P10635 whole entry): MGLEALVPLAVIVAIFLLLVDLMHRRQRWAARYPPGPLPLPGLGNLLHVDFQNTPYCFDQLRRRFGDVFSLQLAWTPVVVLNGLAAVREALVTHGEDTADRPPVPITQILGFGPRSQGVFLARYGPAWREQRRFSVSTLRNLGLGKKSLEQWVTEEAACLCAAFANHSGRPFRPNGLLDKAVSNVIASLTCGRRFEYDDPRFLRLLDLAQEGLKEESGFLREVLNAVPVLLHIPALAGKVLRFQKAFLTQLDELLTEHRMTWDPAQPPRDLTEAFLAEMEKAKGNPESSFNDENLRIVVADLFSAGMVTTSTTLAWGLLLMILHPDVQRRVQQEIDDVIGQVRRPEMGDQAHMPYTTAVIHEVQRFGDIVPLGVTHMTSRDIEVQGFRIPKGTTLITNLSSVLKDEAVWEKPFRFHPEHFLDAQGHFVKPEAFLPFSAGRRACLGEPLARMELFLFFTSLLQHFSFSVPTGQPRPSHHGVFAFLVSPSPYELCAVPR
The experiment in a line: CYP enzyme single-point inhibition assay, 2D6. In kind it is in vitro ADME. As to conditions: human liver microsomes, single-point method. How it is done:
as §1, §2, §3, §4

A short description of data set [7]: Liver microsomal metabolism stability assay (rat). Particulars: compound 1 µM; for half-life at 1 µM: rat liver microsomes 0.5 mg/mL, NADPH/UDPGA, read-out: Rat t1/2; for Rat Remaining rate: rat liver microsomes, 60 min. The data set is classed as in vitro ADME. How it is done: as §5, §6, §7, §8, §9, §10, §11, §12, §13

T2 sequence (P33261 whole entry): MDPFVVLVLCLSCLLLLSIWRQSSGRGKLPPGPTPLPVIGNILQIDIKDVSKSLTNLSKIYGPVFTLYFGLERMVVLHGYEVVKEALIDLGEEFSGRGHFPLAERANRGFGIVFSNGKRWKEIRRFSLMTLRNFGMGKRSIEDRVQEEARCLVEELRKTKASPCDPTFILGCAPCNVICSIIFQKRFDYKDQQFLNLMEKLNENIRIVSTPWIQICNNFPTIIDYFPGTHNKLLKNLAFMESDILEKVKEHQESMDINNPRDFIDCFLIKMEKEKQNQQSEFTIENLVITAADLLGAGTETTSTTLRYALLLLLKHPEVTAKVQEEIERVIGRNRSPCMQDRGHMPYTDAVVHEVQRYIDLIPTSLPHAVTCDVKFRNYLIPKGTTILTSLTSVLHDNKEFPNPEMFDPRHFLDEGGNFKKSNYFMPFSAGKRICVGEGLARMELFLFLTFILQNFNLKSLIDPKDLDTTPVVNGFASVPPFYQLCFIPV

As usually defined, the AUC(0-inf) is the area under the concentration-time curve extrapolated to infinity. The low end stands for less exposure, the high end for more exposure. In general, Cmax refers to the highest concentration seen after dosing. The Tmax is the time from dosing to the highest level. For orientation: IC50 means the concentration that gives 50% inhibition. Read a low IC50 as higher potency. As for `[2H]C([2H])(c1ccc(-c2ccccc2S(=O)(=O)Nc2noc(C)c2Cl)c(COCC)c1)N1C(=O)C2(CCCC2)N=C1CCCC` [Example 2, 4'-((2-Butyl-4-oxo-1,3-diazaspiro[4.4]non-1-en-3-yl)methyl-d2)-N-(4-chloro-5-methylisoxazol-3-yl)-2'-(ethoxymethyl)-[1,1'-biphenyl]-2-sulfonamide], in data set [1], the AUC(0-inf) was found to be 10200 ng·h/mL, the Cmax amounted to 1690 ng/mL, the Tmax worked out at 30 min and the MRT inf worked out at 504 min. Also, the IC50 in data set [2] is over 100 µM. Also, in data set [3], the half-life at 1 µM was determined as 29.9 min and the “Dog Remaining rate” value came out at 24.6%. The IC50 in data set [4] was over 100 µM. Besides, in data set [5], the half-life at 1 µM came out at 38.5 min and the “Human Remaining rate” value was found to be 33.0%. Further, in data set [6], the IC50 was over 100 µM. Further, in data set [7], the half-life at 1 µM was found to be 26.3 min and the “Rat Remaining rate” value was 29.4%.
As for `CCCCC1=NC2(CCCC2)C(=O)N1Cc1ccc(-c2ccccc2S(=O)(=O)Nc2noc(C)c2Cl)c(COCC)c1` [Example 8, 2-[4-[(2-Butyl-4-oxo-1,3-diazaspiro[4.4]non-1-en-3-yl)methyl]-2-(ethoxymethyl)phenyl]-N-(4-chloro-5-methyl-isoxazol-3-yl)benzenesulfonamide], in data set [1], the total exposure AUC(0-inf) was determined as 16000 ng·h/mL, the Cmax turned out to be 2140 ng/mL, the Tmax is 30 min and the MRT inf was found to be 516 min. The IC50 in data set [2] was over 100 µM. Also, in data set [3], the half-life at 1 µM is 28.5 min and the “Dog Remaining rate” value is on record as 23.6%. Besides, the IC50 in data set [4] is over 100 µM. Also, in data set [5], the half-life at 1 µM is 36.5 min and the “Human Remaining rate” value is recorded as 32.0%. In data set [6], this molecule displayed an IC50 of over 100 µM. In data set [7], the half-life at 1 µM came out at 29.9 min and the “Rat Remaining rate” value is listed as 23.3%.

The values above are taken from EP4671240A1, “SALT CONTAINING AROMATIC RING DERIVATIVE ANTAGONIST, PREPARATION METHOD THEREFOR, AND APPLICATION THEREOF” (Jiangsu Hansoh Pharmaceutical Group Co., Ltd., priority 2023, dated 2024).
